Where a name gives a salt, the structure may show the parent alone.
Key:
Assay in all cases: MIC by broth microdilution (CLSI)
Type in all cases: cell-based
[1] = tested on: A. baumannii ATCC 19606 (HAV#010); details: HAV#010, ATCC 19606, CaMHB, 24 h incubation; for MIC: Acinetobacter baumannii, ATCC19606, 24 h, read-out: MIC A. baumannii ATCC 19606; for MIC A. baumannii ATCC 19606: formate salt
Description: (§1) Minimum inhibitory concentrations (MICs) were determined by the broth microdilution method following the Clinical and Laboratory Standards Institute (CLSI) guidelines. Test organisms consisted of standard reference strains from the American Type Culture Collection (ATCC; Manassa, VA, USA) and clinical isolates obtained from JMI Laboratories Inc. (North Liberty, IA, USA), Micromyx repository (MMX; Kalamazoo, MI, USA), and Massachusetts Eye and Ear Hospital (Boston, USA). Before the start of the MIC experiment, standard and test compound stock solutions were prepared in dimethyl sulfoxide (DMSO, Aldrich D2650) at a stock concentration of 2,560 μg/mL. The compound concentration range typically employed for each experiment was 64-0.06 μg/mL (2.5% final DMSO concentration). Iboxamycin was used as a comparator in all experiments. All bacterial strains were sub-cultured on blood agar plates (tryptic soy agar with 5% sheep blood, Hardy Diagnostics) and incubated overnight at 35° C. Organisms were suspended in cation-adjusted Mueller-Hinton broth (CaMHB, BD 212322) and optical density was adjusted to 0.5 McFarland standard. Suspensions were further diluted to obtain a final inoculum of 5×10^5 CFU/mL for broth microdilution experiments. The minimum concentration of compound required to inhibit visible bacterial growth after 24 h of incubation was recorded as the MIC in μg/mL. MICs for P. aeruginosa were recorded in cation-adjusted Mueller-Hinton broth which had been pre-treated with Chelex 100 ion exchange resin according to procedures reported in Ito et al. Antimicrob Agents Chemother (2016) 60 (12), 7396-7401.

[2] = tested on: E. coli ATCC 25922 (HAV#006); details: HAV#006, ATCC 25922, CaMHB, 24 h incubation; for MIC: Escherichia coli, ATCC25922, 24 h, read-out: MIC E. coli ATCC 25922; for MIC E. coli ATCC 25922: formate salt
Description: as §1

E. coli lptD mutant = details: CaMHB, 24 h incubation; for MIC: Escherichia coli, 24 h, read-out: MIC E. coli lptD mutant, lptD mutant / ΔlptD mutant; for MIC E. coli lptD mutant: lptD mutant / ΔlptD mutant, formate salt
Description: as §1

E. coli ΔtolC = details: CaMHB, 24 h incubation; for MIC: Escherichia coli, 24 h, read-out: MIC E. coli ΔtolC, ΔtolC; for MIC E. coli ΔtolC: formate salt
Description: as §1

[3] = tested on: E. faecalis ATCC 29212 (HAV#005); details: HAV#005, ATCC 29212, CaMHB, 24 h incubation; for MIC: Enterococcus faecalis, ATCC29212, 24 h, read-out: MIC E. faecalis ATCC 29212; for MIC E. faecalis ATCC 29212: formate salt
Description: as §1

E. faecium JMI-990536 = details: JMI-990536, CaMHB, 24 h incubation; for MIC: Enterococcus faecium, JMI990536, 24 h, read-out: MIC E. faecium JMI-990536; for MIC E. faecium JMI-990536: formate salt
Description: as §1

K. pneumoniae JMI-991193 = details: JMI-991193, CaMHB, 24 h incubation; for MIC: Klebsiella pneumoniae, JMI991193, 24 h, read-out: MIC K. pneumoniae JMI-991193
Description: as §1

[4] = tested on: S. aureus ATCC 29213 (HAV#001); details: HAV#001, ATCC 29213, CaMHB, 24 h incubation; for MIC: Staphylococcus aureus, ATCC29213, 24 h, read-out: MIC S. aureus ATCC 29213; for MIC S. aureus ATCC 29213: formate salt
Description: as §1

S. aureus Clinical (cfr) = details: Clinical (cfr), CaMHB, 24 h incubation; for MIC: Staphylococcus aureus, 24 h, read-out: MIC S. aureus Clinical (cfr); for MIC S. aureus Clinical (cfr): formate salt
Description: as §1

S. aureus MMX 3035 = details: MMX 3035, CaMHB, 24 h incubation; for MIC: Staphylococcus aureus, MMX3035, 24 h, read-out: MIC S. aureus MMX 3035; for MIC S. aureus MMX 3035: formate salt
Description: as §1

Row | SMILES | MIC [1] | MIC [2] | MIC (E. coli lptD mutant) | MIC (E. coli ΔtolC) | MIC [3] | MIC (E. faecium JMI-990536) | MIC (K. pneumoniae JMI-991193) | MIC [4] | MIC (S. aureus Clinical (cfr)) | MIC (S. aureus MMX 3035) | MIC A. baumannii ATCC 19606 [1] | MIC E. coli ATCC 25922 [2] | MIC E. coli lptD mutant (E. coli lptD mutant) | MIC E. coli ΔtolC (E. coli ΔtolC) | MIC E. faecalis ATCC 29212 [3] | MIC E. faecium JMI-990536 (E. faecium JMI-990536) | MIC K. pneumoniae JMI-991193 (K. pneumoniae JMI-991193; formate salt) | MIC S. aureus ATCC 29213 [4] | MIC S. aureus Clinical (cfr) (S. aureus Clinical (cfr)) | MIC S. aureus MMX 3035 (S. aureus MMX 3035)
1 | CC(C)C[C@@H]1CCO[C@@H]2[C@H](CN[C@@H]2C(=O)N[C@@H]2C/C=C\C[C@@H](c3c[nH]nn3)S[C@H]3O[C@H]2[C@H](O)[C@H](O)[C@H]3O)C1 [FSA1607090, (4S,5aS,8S,8aR)-4-isobutyl-N-((1R,3S,8R,9R,10R,11S,12R,Z)-10,11,12-trihydroxy-3-(1H-1,2,3-triazol-4-yl)-13-oxa-2-thiabicyclo[7.3.1]tridec-5-en-8-yl) octahydro-2H-oxepino[2,3-c]pyrrole-8-carboxamide formate salt] | > 64 µg/mL | > 64 µg/mL | 8 µg/mL | 4 µg/mL | 32 µg/mL | 16 µg/mL | > 64 µg/mL | 8 µg/mL | > 64 µg/mL | 32 µg/mL |  |  |  |  |  |  |  |  |  | 
2 | CC(C)C[C@@H]1CCO[C@@H]2[C@H](CN[C@@H]2C(=O)N[C@@H]2C/C=C\C[C@@H](CN3CCOCC3)S[C@H]3O[C@H]2[C@H](O)[C@H](O)[C@H]3O)C1 [FSA1607019, (4S,5aS,8S,8aR)-4-isobutyl-N-((1R,3S,8R,9R,10R,11S,12R,Z)-10,11,12-trihydroxy-3-(morpholinomethyl)-13-oxa-2-thiabicyclo[7.3.1]tridec-5-en-8-yl) octahydro-2H-oxepino[2,3-c]pyrrole-8-carboxamide formate salt] | 32 µg/mL | 4 µg/mL | 0.5 µg/mL | 0.25 µg/mL | 2 µg/mL | 4 µg/mL | > 64 µg/mL | 4 µg/mL | 16 µg/mL | 8 µg/mL |  |  |  |  |  |  |  |  |  | 
3 | CC(C)C[C@@H]1CCO[C@@H]2[C@H](CN[C@@H]2C(=O)N[C@@H]2C/C=C\C[C@@H](c3cn(-c4ccccc4)nn3)S[C@H]3O[C@H]2[C@H](O)[C@H](O)[C@H]3O)C1 [FSA1607075, (4S,5aS,8S,8aR)-4-isobutyl-N-((1R,3S,8R,9R,10R,11S,12R,Z)-10,11,12-trihydroxy-3-(1-phenyl-1H-1,2,3-triazol-4-yl)-13-oxa-2-thiabicyclo[7.3.1]tridec-5-en-8-yl) octahydro-2H-oxepino[2,3-c]pyrrole-8-carboxamide formate salt] | 8 µg/mL | 4 µg/mL | 2 µg/mL | 2 µg/mL | 2 µg/mL | 2 µg/mL | 32 µg/mL | 2 µg/mL | 8 µg/mL | 4 µg/mL |  |  |  |  |  |  |  |  |  | 
4 | CC(C)C[C@@H]1CCO[C@@H]2[C@H](CN[C@@H]2C(=O)N[C@@H]2C/C=C/[C@H](CO)CSC3O[C@H]2C(O)C(O)[C@H]3O)C1 (single isomer, unassigned) [FSA1608025B, formate salt] | > 64 µg/mL | > 64 µg/mL | > 64 µg/mL | > 64 µg/mL | 32 µg/mL | 32 µg/mL | > 64 µg/mL | 32 µg/mL | > 64 µg/mL | > 64 µg/mL |  |  |  |  |  |  |  |  |  | 
5 | CC(C)C[C@@H]1CCO[C@@H]2[C@H](CN[C@@H]2C(=O)N[C@H]2[C@H]3O[C@H](SCCC/C=C/[C@H]2C)[C@H](O)[C@@H](O)[C@H]3O)C1 [FSA1609095, (4S,5aS,8S,8aR)-4-isobutyl-N-((1R,8R,9R,10R,11R,12S,13R,E)-11,12,13-trihydroxy-8-methyl-14-oxa-2-thiabicyclo[8.3.1]tetradec-6-en-9-yl) octahydro-2H-oxepino[2,3-c]pyrrole-8-carboxamide formate salt] |  |  |  |  |  |  |  |  |  |  | 4 µg/mL | 8 µg/mL | 0.5 µg/mL | 4 µg/mL | 0.125 µg/mL | 2 µg/mL | 16 µg/mL | ≤0.06 µg/mL | 8 µg/mL | 2 µg/mL
6 | CC(C)C[C@@H]1CCO[C@@H]2[C@H](CN[C@@H]2C(=O)N[C@@H]2C(C)/C=C/CCCSC3OC2C(O)C(O)C3O)C1 (stereo in doubt) [FSA1609094, (4S,5aS,8S,8aR)-4-isobutyl-N-((1R,8S,9R,10R,11R,12S,13R,E)-11,12,13-trihydroxy-8-methyl-14-oxa-2-thiabicyclo[8.3.1]tetradec-6-en-9-yl) octahydro-2H-oxepino[2,3-c]pyrrole-8-carboxamide formate salt] |  |  |  |  |  |  | > 32 µg/mL |  |  |  | >32 µg/mL | >32 µg/mL | 32 µg/mL | 32 µg/mL | 2 µg/mL | >32 µg/mL |  | 0.25 µg/mL | >32 µg/mL | >32 µg/mL
7 | CC(C)C[C@@H]1CCO[C@@H]2[C@H](CN[C@@H]2C(=O)N[C@H]2[C@H]3O[C@H](S[C@H](c4cn(-c5cc(F)c(F)cc5F)nn4)C/C=C\[C@H]2C)[C@H](O)[C@@H](O)[C@H]3O)C1 [FSA1609051, (4S,5aS,8S,8aR)-4-isobutyl-N-((1R,3S,7R,8R,9R,10R,11S,12R,Z)-10,11,12-trihydroxy-7-methyl-3-(1-(2,4,5-trifluorophenyl)-1H-1,2,3-triazol-4-yl)-13-oxa-2-thiabicyclo[7.3.1]tridec-5-en-8-yl) octahydro-2H-oxepino[2,3-c]pyrrole-8-carboxamide formate salt] | 2 µg/mL | 4 µg/mL | 0.5 µg/mL | 0.25 µg/mL | 0.25 µg/mL | 0.5 µg/mL | 8 µg/mL | 0.25 µg/mL | 0.5 µg/mL | 0.5 µg/mL |  |  |  |  |  |  |  |  |  | 
8 | CC(C)C[C@@H]1CCO[C@@H]2[C@H](CN[C@@H]2C(=O)N[C@@H]2C/C=C\C[C@H](CN3CCOCC3)S[C@H]3O[C@H]2[C@H](O)[C@H](O)[C@H]3O)C1 [FSA1607020, (4S,5aS,8S,8aR)-4-isobutyl-N-((1R,3R,8R,9R,10R,11S,12R,Z)-10,11,12-trihydroxy-3-(morpholinomethyl)-13-oxa-2-thiabicyclo[7.3.1]tridec-5-en-8-yl) octahydro-2H-oxepino[2,3-c]pyrrole-8-carboxamide formate salt] | 32 µg/mL | 8 µg/mL | 1 µg/mL | 0.25 µg/mL | 4 µg/mL | 16 µg/mL | > 64 µg/mL | 4 µg/mL | 16 µg/mL | 16 µg/mL |  |  |  |  |  |  |  |  |  | 

Source: patent US20250270246A1, “LINCOSAMIDES AND USES THEREOF” (President and Fellows of Harvard College, priority 2022, published 2025)
